Laboratory results published in the NIST ThermoML archive (doi:10.1016/j.jct.2017.05.001).
Numbers after ± are expanded uncertainties.

Experiment: wn = mass fraction of the nth substance listed
Settings: 393.15 K, Liquid; for viscosity: Falling or rolling sphere viscometry; for mass density: Vibrating tube method

OCCNCCO [diethanolamine] + O gave a viscosity (10000 kPa, w1 = 0.3002) of 0.4721 ± 0.015 mPa·s, a viscosity (10000 kPa, w1 = 0.3997) of 0.6265 ± 0.021 mPa·s and a mass density (10000 kPa, w1 = 0.0993) of 957.5 ± 0.7 kg/m3. For the same compound, the mass density (10000 kPa, w1 = 0.2) was 967.7 ± 0.7 kg/m3, the mass density (10000 kPa, w1 = 0.3002) was 977.7 ± 0.7 kg/m3 and the mass density (10000 kPa, w1 = 0.3997) was 988 ± 0.7 kg/m3. It also gave a viscosity (15000 kPa, w1 = 0.0993) of 0.2964 ± 0.0097 mPa·s, a viscosity (15000 kPa, w1 = 0.2) of 0.37 ± 0.012 mPa·s and a viscosity (15000 kPa, w1 = 0.3002) of 0.4778 ± 0.016 mPa·s. It also gave a viscosity (15000 kPa, w1 = 0.3997) of 0.6495 ± 0.021 mPa·s, a mass density (15000 kPa, w1 = 0.0993) of 959.9 ± 0.7 kg/m3 and a mass density (15000 kPa, w1 = 0.2) of 969.9 ± 0.7 kg/m3. For the same compound, the mass density (15000 kPa, w1 = 0.3002) was 980 ± 0.7 kg/m3, the mass density (15000 kPa, w1 = 0.3997) was 990.3 ± 0.7 kg/m3 and the viscosity (20000 kPa, w1 = 0.0993) was 0.2989 ± 0.0098 mPa·s. For the same compound, the viscosity (20000 kPa, w1 = 0.2) was 0.3724 ± 0.012 mPa·s, the viscosity (20000 kPa, w1 = 0.3002) was 0.4809 ± 0.016 mPa·s and the viscosity (20000 kPa, w1 = 0.3997) was 0.6555 ± 0.022 mPa·s. The mass density (20000 kPa, w1 = 0.0993) was 962.3 ± 0.7 kg/m3, the mass density (20000 kPa, w1 = 0.2) was 972.3 ± 0.7 kg/m3 and the mass density (20000 kPa, w1 = 0.3002) was 982.4 ± 0.7 kg/m3. For the same compound, the mass density (20000 kPa, w1 = 0.3997) was 992.7 ± 0.7 kg/m3, the viscosity (25000 kPa, w1 = 0.0993) was 0.301 ± 0.0099 mPa·s and the viscosity (25000 kPa, w1 = 0.2) was 0.3748 ± 0.012 mPa·s. For the same compound, the viscosity (25000 kPa, w1 = 0.3002) was 0.4848 ± 0.016 mPa·s, the viscosity (25000 kPa, w1 = 0.3997) was 0.6626 ± 0.022 mPa·s and the viscosity (30000 kPa, w1 = 0.0993) was 0.3024 ± 0.0099 mPa·s. For the same compound, the viscosity (30000 kPa, w1 = 0.2) was 0.3769 ± 0.012 mPa·s, the viscosity (30000 kPa, w1 = 0.3002) was 0.4908 ± 0.016 mPa·s and the viscosity (30000 kPa, w1 = 0.3997) was 0.6682 ± 0.022 mPa·s. The mass density (30000 kPa, w1 = 0.0993) was 966.8 ± 0.7 kg/m3, the mass density (30000 kPa, w1 = 0.2) was 976.8 ± 0.7 kg/m3 and the mass density (30000 kPa, w1 = 0.3002) was 986.9 ± 0.7 kg/m3. The mass density (30000 kPa, w1 = 0.3997) was 997.1 ± 0.7 kg/m3, the viscosity (40000 kPa, w1 = 0.0993) was 0.3047 ± 0.01 mPa·s and the viscosity (40000 kPa, w1 = 0.2) was 0.3818 ± 0.013 mPa·s. It also gave a viscosity (40000 kPa, w1 = 0.3002) of 0.4967 ± 0.016 mPa·s, a viscosity (40000 kPa, w1 = 0.3997) of 0.681 ± 0.022 mPa·s and a mass density (40000 kPa, w1 = 0.0993) of 971.3 ± 0.7 kg/m3. It also gave a mass density (40000 kPa, w1 = 0.2) of 981.3 ± 0.7 kg/m3, a mass density (40000 kPa, w1 = 0.3002) of 991.2 ± 0.7 kg/m3 and a mass density (40000 kPa, w1 = 0.3997) of 1001.4 ± 0.7 kg/m3. It also gave a mass density (50000 kPa, w1 = 0.0993) of 975.4 ± 0.7 kg/m3, a mass density (50000 kPa, w1 = 0.2) of 985.4 ± 0.7 kg/m3 and a mass density (50000 kPa, w1 = 0.3002) of 995.3 ± 0.7 kg/m3. For the same compound, the mass density (50000 kPa, w1 = 0.3997) was 1005.4 ± 0.7 kg/m3, the viscosity (60000 kPa, w1 = 0.0993) was 0.3113 ± 0.01 mPa·s and the viscosity (60000 kPa, w1 = 0.2) was 0.3919 ± 0.013 mPa·s. For the same compound, the viscosity (60000 kPa, w1 = 0.3002) was 0.5122 ± 0.017 mPa·s, the viscosity (60000 kPa, w1 = 0.3997) was 0.7072 ± 0.023 mPa·s and the mass density (60000 kPa, w1 = 0.0993) was 979.7 ± 0.7 kg/m3. It also gave a mass density (60000 kPa, w1 = 0.2) of 989.6 ± 0.7 kg/m3, a mass density (60000 kPa, w1 = 0.3002) of 999.4 ± 0.7 kg/m3 and a mass density (60000 kPa, w1 = 0.3997) of 1009.6 ± 0.7 kg/m3. The mass density (70000 kPa, w1 = 0.0993) was 984 ± 0.7 kg/m3, the mass density (70000 kPa, w1 = 0.2) was 993.8 ± 0.7 kg/m3 and the mass density (70000 kPa, w1 = 0.3002) was 1003.6 ± 0.7 kg/m3. It also gave a mass density (70000 kPa, w1 = 0.3997) of 1013.6 ± 0.7 kg/m3, a viscosity (80000 kPa, w1 = 0.0993) of 0.3178 ± 0.01 mPa·s and a viscosity (80000 kPa, w1 = 0.2) of 0.4017 ± 0.013 mPa·s. For the same compound, the viscosity (80000 kPa, w1 = 0.3002) was 0.527 ± 0.017 mPa·s, the viscosity (80000 kPa, w1 = 0.3997) was 0.7305 ± 0.024 mPa·s and the mass density (80000 kPa, w1 = 0.0993) was 987.9 ± 0.7 kg/m3. For the same compound, the mass density (80000 kPa, w1 = 0.2) was 997.6 ± 0.7 kg/m3, the mass density (80000 kPa, w1 = 0.3002) was 1007.3 ± 0.7 kg/m3 and the mass density (80000 kPa, w1 = 0.3997) was 1017.3 ± 0.7 kg/m3. For the same compound, the mass density (90000 kPa, w1 = 0.0993) was 991.7 ± 0.7 kg/m3, the mass density (90000 kPa, w1 = 0.2) was 1001.5 ± 0.7 kg/m3 and the mass density (90000 kPa, w1 = 0.3002) was 1011.2 ± 0.7 kg/m3. For the same compound, the mass density (90000 kPa, w1 = 0.3997) was 1021.2 ± 0.7 kg/m3, the viscosity (100000 kPa, w1 = 0.0993) was 0.3233 ± 0.011 mPa·s and the viscosity (100000 kPa, w1 = 0.2) was 0.4114 ± 0.013 mPa·s. It also gave a viscosity (100000 kPa, w1 = 0.3002) of 0.5417 ± 0.018 mPa·s, a viscosity (100000 kPa, w1 = 0.3997) of 0.7538 ± 0.025 mPa·s and a mass density (100000 kPa, w1 = 0.0993) of 995.5 ± 0.7 kg/m3. The mass density (100000 kPa, w1 = 0.2) was 1005.2 ± 0.7 kg/m3, the mass density (100000 kPa, w1 = 0.3002) was 1014.8 ± 0.7 kg/m3 and the mass density (100000 kPa, w1 = 0.3997) was 1024.8 ± 0.7 kg/m3. It also gave a mass density (110000 kPa, w1 = 0.0993) of 999.4 ± 0.7 kg/m3, a mass density (110000 kPa, w1 = 0.2) of 1008.9 ± 0.7 kg/m3 and a mass density (110000 kPa, w1 = 0.3002) of 1018.5 ± 0.7 kg/m3. The mass density (110000 kPa, w1 = 0.3997) was 1028.5 ± 0.7 kg/m3, the mass density (120000 kPa, w1 = 0.0993) was 1003.1 ± 0.7 kg/m3 and the mass density (120000 kPa, w1 = 0.2) was 1012.6 ± 0.7 kg/m3. The mass density (120000 kPa, w1 = 0.3002) was 1022.1 ± 0.7 kg/m3, the mass density (120000 kPa, w1 = 0.3997) was 1032 ± 0.7 kg/m3 and the mass density (130000 kPa, w1 = 0.0993) was 1006.6 ± 0.7 kg/m3. For the same compound, the mass density (130000 kPa, w1 = 0.2) was 1016.1 ± 0.7 kg/m3, the mass density (130000 kPa, w1 = 0.3002) was 1025.5 ± 0.7 kg/m3 and the mass density (130000 kPa, w1 = 0.3997) was 1035.4 ± 0.7 kg/m3. It also gave a mass density (140000 kPa, w1 = 0.0993) of 1010.1 ± 0.7 kg/m3, a mass density (140000 kPa, w1 = 0.2) of 1019.5 ± 0.7 kg/m3 and a mass density (140000 kPa, w1 = 0.3002) of 1029.1 ± 0.7 kg/m3. It also gave a mass density (140000 kPa, w1 = 0.3997) of 1038.9 ± 0.8 kg/m3.
